Test results published in patent publication US20200031785A1, “METHODS FOR TREATING CHRONIC PAIN AND OPIOID DEPENDENCE USING ADENYLYL CYCLASE INHIBITORS” (Purdue Research Foundation, priority 2017, published 2020).

Tests used:
hAC1 = target: T1, hAC1 (Homo sapiens, UniProt Q08828); experiment: Cyclic AMP accumulation in HEK cells stably expressing AC1, stimulated with A23187 (HTRF); format: cell-based; conditions: HEK-AC1 cells; for inhibition at 30 µM: HEK293; for IC50: read-out: HEK-AC1 IC50
T1 construct: expressed in transfected cells
Procedure: The development and mechanistic characterization of AC1-selective small molecule inhibitors is believed to provide novel non-opioid weapons in the war on chronic pain. We identified our initial hits via screening 10,000 selected compounds from the Life Chemicals collection. The screen was carried out using HEK cells stably expressing AC1 (HEK-AC1) and cyclic AMP accumulation was stimulated using the Ca^2+ ionophore, A23187 to selectively activate AC1. Compounds with potential chemical liabilities and PAINs were removed from further evaluation (Baell and Holloway, J. Med. Chem. 2010, 53, 2719-2740).
(§1) Fresh powders of several robust inhibitors (>90% inhibition) were evaluated in multiple confirmation assays assessing the dose response relationship for inhibiting AC1 and AC8 activity. Confirmation assays used A23817 to selectively stimulate recombinant AC1 or AC8 in the HEK cell background (Cumbay and Watts (2001), J. Pharmacol Exp Ther 297:1201-1399). This approach takes advantage of one unique regulatory property of AC1 for the development of selective inhibitors. Both AC1 and AC8 are robustly activated by Ca^2+/CaM under a variety of conditions, whereas the effects of Ca^2+/CaM on AC3 are modest and conditional requiring activation by G proteins. Previous studies have identified unique Ca^2+/CaM binding domains as one possible site of interaction to achieve AC1 (vs. AC8) selectivity (Masada et al., 2012, Biochemistry 51:7917-7929).
(§2) The primary technology we employed to measure cAMP accumulation was a homogenous time-resolved fluorescence (HTRF) assay, the same technology utilized in the primary screen. […] This could be due to either 1) the chemical scaffolds are exquisitely selective toward the AC family of enzymes or 2) the library has not been screened against a sufficient number of targets. The answer is likely a combination of the two; nonetheless, the lack of biological data to date bodes well for these series and any potential off-target promiscuity.
(§3) Human embryonic kidney (HEK) cells stably expressing AC1, AC8, or AC1 with the MOR were cultured in Dulbecco's Modified Eagle Medium (Life Technologies, Grand Island, N.Y.) supplemented with 5% bovine calf serum (Hyclone, Logan, Utah), 5% fetal clone I (Hyclone), Antibiotic-Antimycotic (Life Technologies), and G418 (Invivogen, San Diego, Calif.) (HEK-AC1), or hygromycin B (Fisher Scientific, Pittsburgh, Pa.) (HEK-AC8), or G418 and puromycin (Sigma-Aldrich) (HEK-AC1/MOR). Chinese hamster ovary (CHO) cells expressing the MOR (CHO-MOR) in the PathHunter® β-Arrestin GPCR assay platform were purchased from DiscoveRx (Freemont, Calif.). Cells were grown in Ham's F12 media supplemented with 1 mM L-glutamine (Thermo Scientific, West Palm Beach, Fla.), 10% fetal bovine serum (Hyclone), 50 U/ml penicillin, 50 μg/ml streptomycin (Life Technologies), G418 and hygromycin B. Cells were grown and frozen as previously described (J. M. Conley, et al., J Vis Exp, e51218 (2014)).
(§4) Cyclic AMP accumulation was measured as previously described (Brust, et al., J. Pharmacol. Exp. Ther. 352, 480-493(2015)). Briefly, cryopreserved cells were thawed, resuspended in optiMEM (Life Technologies), and plated in white, flat bottom, low-volume, tissue culture-treated 384 well plates (PerkinElmer, Shelton, Conn.). Plates with cells were incubated in a 37° C. humidified incubator for 1 h. Inhibitors were added and plates were incubated at room temperature for 30 min followed by the addition of AC stimulants in the presence of 500 μM IBMX. Cells were incubated at room temperature for 1 h and cAMP accumulation was measured using Cisbio's cAMP kit (Cisbio Bioassays, Bedford, Mass.) according to the manufacturer's instructions.

hAC8 = target: T2, hAC8 (Homo sapiens, UniProt P40145); experiment: Cyclic AMP accumulation in HEK cells stably expressing AC8, stimulated with A23187 (HTRF); format: cell-based; conditions: HEK-AC8 cells; for inhibition at 30 µM: HEK293; for IC50: read-out: HEK-AC8 IC50
T2 construct: expressed in transfected cells
Procedure: as §1, §2, §3, §4

T2 sequence (P40145 whole entry): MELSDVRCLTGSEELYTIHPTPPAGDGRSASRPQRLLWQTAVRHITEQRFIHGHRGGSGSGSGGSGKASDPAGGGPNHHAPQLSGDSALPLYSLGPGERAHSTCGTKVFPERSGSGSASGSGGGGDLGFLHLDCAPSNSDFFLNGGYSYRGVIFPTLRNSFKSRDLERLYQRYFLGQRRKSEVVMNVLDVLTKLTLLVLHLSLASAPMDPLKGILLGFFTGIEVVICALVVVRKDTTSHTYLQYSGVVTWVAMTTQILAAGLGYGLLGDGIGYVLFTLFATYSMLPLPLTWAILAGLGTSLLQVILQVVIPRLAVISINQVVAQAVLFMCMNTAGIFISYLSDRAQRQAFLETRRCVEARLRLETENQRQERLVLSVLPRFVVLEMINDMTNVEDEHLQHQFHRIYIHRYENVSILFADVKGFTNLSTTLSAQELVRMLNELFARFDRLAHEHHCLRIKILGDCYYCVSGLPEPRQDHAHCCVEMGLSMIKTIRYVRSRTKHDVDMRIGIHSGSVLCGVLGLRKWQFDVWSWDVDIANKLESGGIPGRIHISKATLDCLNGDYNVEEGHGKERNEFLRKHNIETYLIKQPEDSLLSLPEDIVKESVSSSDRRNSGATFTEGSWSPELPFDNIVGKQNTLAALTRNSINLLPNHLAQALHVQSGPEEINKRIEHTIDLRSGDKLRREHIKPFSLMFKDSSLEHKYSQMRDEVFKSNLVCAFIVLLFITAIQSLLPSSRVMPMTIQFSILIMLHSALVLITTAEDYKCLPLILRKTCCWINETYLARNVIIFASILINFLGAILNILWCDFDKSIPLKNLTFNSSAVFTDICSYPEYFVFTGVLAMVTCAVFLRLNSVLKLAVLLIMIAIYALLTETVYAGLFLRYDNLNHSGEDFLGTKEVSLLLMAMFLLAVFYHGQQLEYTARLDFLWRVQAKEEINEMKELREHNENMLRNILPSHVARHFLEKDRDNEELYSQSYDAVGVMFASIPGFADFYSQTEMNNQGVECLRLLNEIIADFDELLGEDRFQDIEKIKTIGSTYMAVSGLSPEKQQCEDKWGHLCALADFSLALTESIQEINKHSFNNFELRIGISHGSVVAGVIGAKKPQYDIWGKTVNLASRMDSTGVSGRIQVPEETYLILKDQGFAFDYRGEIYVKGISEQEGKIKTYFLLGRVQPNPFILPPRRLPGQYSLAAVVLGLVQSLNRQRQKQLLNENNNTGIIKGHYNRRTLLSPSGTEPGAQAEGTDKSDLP
T1 sequence (Q08828 whole entry): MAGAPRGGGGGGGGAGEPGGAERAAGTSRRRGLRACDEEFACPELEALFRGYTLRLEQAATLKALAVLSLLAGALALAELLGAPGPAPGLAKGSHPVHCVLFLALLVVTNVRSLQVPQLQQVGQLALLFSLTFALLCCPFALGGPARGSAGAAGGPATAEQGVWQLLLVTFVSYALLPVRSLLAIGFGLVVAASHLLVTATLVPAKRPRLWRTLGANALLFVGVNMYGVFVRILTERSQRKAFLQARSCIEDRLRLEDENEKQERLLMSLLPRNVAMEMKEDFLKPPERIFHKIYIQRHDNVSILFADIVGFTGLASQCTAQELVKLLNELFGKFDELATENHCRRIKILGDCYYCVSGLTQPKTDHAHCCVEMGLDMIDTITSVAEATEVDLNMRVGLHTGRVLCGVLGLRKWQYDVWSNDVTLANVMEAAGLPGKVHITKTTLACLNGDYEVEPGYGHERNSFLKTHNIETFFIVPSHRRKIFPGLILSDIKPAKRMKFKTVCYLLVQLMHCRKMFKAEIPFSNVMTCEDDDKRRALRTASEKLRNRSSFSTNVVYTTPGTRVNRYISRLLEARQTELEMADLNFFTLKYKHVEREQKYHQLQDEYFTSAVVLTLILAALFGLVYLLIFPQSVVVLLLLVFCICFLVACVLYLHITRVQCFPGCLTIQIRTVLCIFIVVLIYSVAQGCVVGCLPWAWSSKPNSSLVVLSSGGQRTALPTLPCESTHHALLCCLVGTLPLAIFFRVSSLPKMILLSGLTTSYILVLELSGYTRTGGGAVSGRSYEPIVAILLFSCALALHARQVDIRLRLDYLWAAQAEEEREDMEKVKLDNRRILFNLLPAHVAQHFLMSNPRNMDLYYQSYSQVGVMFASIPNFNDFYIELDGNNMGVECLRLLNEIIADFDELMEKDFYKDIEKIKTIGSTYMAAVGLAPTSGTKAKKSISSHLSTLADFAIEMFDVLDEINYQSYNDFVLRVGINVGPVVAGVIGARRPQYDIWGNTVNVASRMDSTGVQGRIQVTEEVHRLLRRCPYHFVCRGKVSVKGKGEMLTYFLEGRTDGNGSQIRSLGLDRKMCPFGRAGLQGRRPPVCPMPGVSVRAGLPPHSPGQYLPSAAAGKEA

Row | inhibition at 30 µM (hAC1) | IC50 (hAC1) | inhibition at 30 µM (hAC8) | IC50 (hAC8) | Structure (SMILES)
1 | 78 ± 4% | 15.8 ± 2 µM | 1 ± 12% |  | Cc1ccc(C(=O)Nc2nnc(C3CCCCC3)o2)cc1 [AC10032, N-(5-cyclohexyl-1,3,4-oxadiazol-2-yl)-4-methylbenzamide]
2 | 99 ± 0.4% | 1 ± 0.3 µM | 90 ± 1% | 4.2 ± 0.2 µM | O=C(Nc1nnc(-c2ccc3c(c2)CCCC3)o1)c1cccc(F)c1 [AC10059, 3-fluoro-N-(5-(5,6,7,8-tetrahydronaphthalen-2-yl)-1,3,4-oxadiazol-2-yl)benzamide]
3 | 97 ± 4% | 1.7 ± 0.7 µM | 68 ± 5% | 9.4 ± 2 µM | CSc1cccc(C(=O)Nc2nnc(-c3ccc4c(c3)CCCC4)o2)c1 [AC10013, 3-(methylthio)-N-(5-(5,6,7,8-tetrahydronaphthalen-2-yl)-1,3,4-oxadiazol-2-yl)benzamide]
4 | 90 ± 2% | 4.8 ± 1 µM | 79 ± 11% | 9 ± 1 µM | COc1cc(C(=O)Nc2nnc(C3CCCCC3)o2)cc(C(F)(F)F)c1 [AC10070, N-(5-cyclohexyl-1,3,4-oxadiazol-2-yl)-3-methoxy-5-(trifluoromethyl)benzamide]
5 | 82 ± 7% | 8.6 ± 3 µM | 71 ± 11% | 25 ± 8 µM | O=C(Nc1nnc(C2CCCCC2)o1)c1ccc(Br)cc1 [AC10007, 4-bromo-N-(5-cyclohexyl-1,3,4-oxadiazol-2-yl)benzamide]
6 | 93 ± 5% | 4.6 ± 2 µM | 75 ± 12% | 9 ± 5 µM | Cc1ccc(C(=O)Nc2nnc(-c3ccc(F)cc3)o2)cc1C(F)(F)F [AC10067, N-(5-(4-fluorophenyl)-1,3,4-oxadiazol-2-yl)-4-methyl-3-(trifluoromethyl)benzamide]
7 | 86 ± 11% | 11.5 ± 4 µM | 25 ± 6% | 83 ± 47 µM | Cc1ccc(C(=O)Nc2nnc(-c3ccc4c(c3)OCCO4)o2)cc1 [AC10029, N-(5-(2,3-dihydrobenzo[b][1,4]dioxin-6-yl)-1,3,4-oxadiazol-2-yl)-4-methylbenzamide]
8 | 100 ± 1% | 3.7 ± 1 µM | 83 ± 7% | 7 ± 1 µM | Cc1ccc(C(=O)Nc2nnc(C3CCCCC3)o2)cc1C(F)(F)F [AC10071, N-(5-cyclohexyl-1,3,4-oxadiazol-2-yl)-4-methyl-3-(trifluoromethyl)benzamide]
9 | 84 ± 5% | 11 ± 2 µM | 34 ± 1% | 66 ± 2 µM | CSc1cccc(C(=O)Nc2nnc(-c3cccs3)o2)c1 [AC10012, 3-(methylthio)-N-(5-(thiophen-2-yl)-1,3,4-oxadiazol-2-yl)benzamide]
10 | 76 ± 1% | 8.9 ± 1 µM | 11 ± 9% |  | O=C(Nc1nnc(-c2ccc(F)cc2)o1)c1ccc(Cl)cc1 [AC10054, 4-chloro-N-(5-(4-fluorophenyl)-1,3,4-oxadiazol-2-yl)benzamide]
11 | 56 ± 5% | 29 ± 3 µM | 18 ± 2% | 101 ± 3 µM | O=C(Nc1nnc(-c2cccs2)o1)c1ccccc1 [AC10006, N-(5-(thiophen-2-yl)-1,3,4-oxadiazol-2-yl)benzamide]
12 | 98 ± 1% | 5.9 ± 1 µM | 74 ± 8% | 22 ± 4 µM | O=C(Nc1nnc(-c2ccc3c(c2)CCCC3)o1)c1ccc(F)cc1 [AC10056, 4-fluoro-N-(5-(5,6,7,8-tetrahydronaphthalen-2-yl)-1,3,4-oxadiazol-2-yl)benzamide]
13 | 99% | 3.1 ± 0.4 µM | 55 ± 3% | 25 ± 4 µM | COc1cccc(C(=O)Nc2nnc(-c3ccc4c(c3)CCCC4)o2)c1 [AC10016, 3-methoxy-N-(5-(5,6,7,8-tetrahydronaphthalen-2-yl)-1,3,4-oxadiazol-2-yl)benzamide]
14 | 80 ± 5% | 15 ± 2 µM | 10 ± 7% |  | COc1ccc(C(=O)Nc2nnc(-c3cccs3)o2)cc1 [AC10018, 4-methoxy-N-(5-(thiophen-2-yl)-1,3,4-oxadiazol-2-yl)benzamide]
15 | 77 ± 13% | 9.9 ± 7 µM | 63 ± 7% | 12.6 ± 6 µM | CC(C)Oc1ccc(C(=O)Nc2nnc(-c3ccc4c(c3)CCCC4)o2)cc1 [AC10010, 4-isopropoxy-N-(5-(5,6,7,8-tetrahydronaphthalen-2-yl)-1,3,4-oxadiazol-2-yl)benzamide]
16 | 100 ± 1% | 5.3 ± 0.4 µM | 61 ± 1% | 14 ± 3 µM | Cc1ccc(C(=O)Nc2nnc(-c3ccc4c(c3)OCCO4)o2)cc1C [AC10035, N-(5-(2,3-dihydrobenzo[b][1,4]dioxin-6-yl)-1,3,4-oxadiazol-2-yl)-3,4-dimethylbenzamide]
17 | 99 ± 0.5% | 1.4 ± 0.2 µM | 89 ± 2% | 4.1 ± 0.4 µM | Cc1cc(C(=O)Nc2nnc(-c3ccc(F)cc3)o2)cc(C(F)(F)F)c1 [AC10065, N-(5-(4-fluorophenyl)-1,3,4-oxadiazol-2-yl)-3-methyl-5-(trifluoromethyl)benzamide]
18 | 101 ± 0.4% | 3.4 ± 0.6 µM | 68 ± 0.5% | 23 ± 3 µM | O=C(Nc1nnc(-c2ccc3c(c2)OCCO3)o1)c1ccc(Br)cc1 [AC10015, 4-bromo-N-(5-(2,3-dihydrobenzo[b][1,4]dioxin-6-yl)-1,3,4-oxadiazol-2-yl)benzamide]
19 | 97 ± 1% | 5 ± 1 µM | 80 ± 9% | 6 ± 1 µM | COc1cc(C(=O)Nc2nnc(-c3ccc(F)cc3)o2)cc(C(F)(F)F)c1 [AC10068, N-(5-(4-fluorophenyl)-1,3,4-oxadiazol-2-yl)-3-methoxy-5-(trifluoromethyl)benzamide]
20 | 74 ± 4% | 12.2 ± 3 µM | 64 ± 13% | 27 ± 8 µM | O=C(Nc1nnc(-c2ccc3c(c2)CCCC3)o1)c1ccc(Br)cc1 [AC10005, 4-bromo-N-(5-(5,6,7,8-tetrahydronaphthalen-2-yl)-1,3,4-oxadiazol-2-yl)benzamide]
21 | 71 ± 5% | 13.5 ± 2 µM | 10 ± 12% |  | O=C(Nc1nnc(C2CCCCC2)o1)c1ccc(Cl)cc1 [AC10055, 4-chloro-N-(5-cyclohexyl-1,3,4-oxadiazol-2-yl)benzamide]
22 | 77 ± 8% | 6.6 ± 3 µM | 43 ± 6% | 61 ± 22 µM | CSc1cccc(C(=O)Nc2nnc(C3CCCCC3)o2)c1 [AC10011, N-(5-cyclohexyl-1,3,4-oxadiazol-2-yl)-3-(methylthio)benzamide]
23 | 96 ± 1% | 9.6 ± 1 µM | 83 ± 7% | 15 ± 2 µM | Cc1cc(C(=O)Nc2nnc(C3CCCCC3)o2)cc(C(F)(F)F)c1 [AC10069, N-(5-cyclohexyl-1,3,4-oxadiazol-2-yl)-3-methyl-5-(trifluoromethyl)benzamide]
24 | 100 ± 0.2% | 5.1 ± 0.7 µM | 60 ± 8% | 32 ± 12 µM | O=C(Nc1nnc(-c2ccc3c(c2)OCCO3)o1)c1cccc(C(F)(F)F)c1 [AC10023, N-(5-(2,3-dihydrobenzo[b][1,4]dioxin-6-yl)-1,3,4-oxadiazol-2-yl)-3-(trifluoromethyl)benzamide]
25 | 80 ± 10% | 7.3 ± 2 µM | 31 ± 6% | 61 ± 33 µM | Cc1ccc(C(=O)Nc2nnc(-c3ccc(F)cc3)o2)cc1 [AC10031, N-(5-(4-fluorophenyl)-1,3,4-oxadiazol-2-yl)-4-methylbenzamide]
